Test results reported in ChEMBL document CHEMBL1649532, “Trypanocidal activity of 8-methyl-5'-{[(Z)-4-aminobut-2-enyl]-(methylamino)}adenosine (Genz-644131), an adenosylmethionine decarboxylase inhibitor” (Antimicrob Agents Chemother, 2009).
Converted amounts (≈) assume the structure as drawn. The source made the active and inactive calls. No cut-off for these calls is given here.

Experiments:
[1] = system: Trypanosoma brucei brucei; test: Trypanocidal activity against Trypanosoma brucei brucei EATRO infected in mouse assessed as protection against trypanosomal infection at 25 mg/kg, ip BID for 4 days; assay type: functional, organism-based; parameters: dose 25 mg/kg
[2] = system: Trypanosoma brucei brucei; test: Trypanocidal activity against Trypanosoma brucei brucei 667 infected in mouse assessed as average day of relapse of trypanosomal infection at 50 mg/kg, ip BID for 7 days; assay type: functional; conditions: route intraperitoneal
[3] = system: Trypanosoma brucei brucei; test: Trypanocidal activity against Trypanosoma brucei brucei EATRO infected in mouse assessed as protection against trypanosomal infection at 50 mg/kg, ip BID for 4 days; assay type: functional, organism-based; parameters: dose 50 mg/kg
[4] = system: Trypanosoma brucei brucei; test: Trypanocidal activity against Trypanosoma brucei brucei 667 infected in mouse assessed as average day of relapse of trypanosomal infection at 100 mg/kg, ip BID for 14 days; assay type: functional; conditions: route intraperitoneal
[5] = system: Trypanosoma brucei brucei; test: Trypanocidal activity against Trypanosoma brucei brucei EATRO infected in mouse assessed as protection against trypanosomal infection at 10 mg/kg, ip QD for 4 days; assay type: functional, organism-based; parameters: dose 10 mg/kg
[6] = system: Trypanosoma brucei rhodesiense; test: Trypanocidal activity against Trypanosoma brucei rhodesiense KETRI243 infected in mouse assessed as protection against trypanosomal infection at 50 mg/kg, ip QD administered 24 hrs postinfection; assay type: functional, organism-based; parameters: dose 50 mg/kg
[7] = system: Trypanosoma brucei rhodesiense; test: Trypanocidal activity against Trypanosoma brucei rhodesiense KETRI2002 infected in mouse assessed as average survival time at 50 mg/kg, ip BID administered 24 hrs postinfection; assay type: functional; conditions: route intraperitoneal
[8] = system: Trypanosoma brucei brucei; test: Trypanocidal activity against Trypanosoma brucei brucei EATRO infected in mouse assessed as protection against trypanosomal infection at 2 mg/kg, ip QD for 4 days; assay type: functional, organism-based; parameters: dose 2 mg/kg
[9] = system: Trypanosoma brucei brucei; test: Trypanocidal activity against Trypanosoma brucei brucei EATRO infected in mouse assessed as mean survival time at 10 mg/kg, ip QD for 4 days; assay type: functional; conditions: route intraperitoneal
[10] = system: Trypanosoma brucei brucei; test: Trypanocidal activity against Trypanosoma brucei brucei EATRO infected in mouse assessed as protection against trypanosomal infection at 5 mg/kg, ip BID for 4 days; assay type: functional, organism-based; parameters: dose 5 mg/kg
[11] = system: Trypanosoma brucei rhodesiense; test: Trypanocidal activity against Trypanosoma brucei rhodesiense KETRI1992 infected in mouse assessed as cure rate at 25 mg/kg, ip BID administered 24 hrs postinfection; assay type: functional; conditions: route intraperitoneal
[12] = system: Trypanosoma brucei rhodesiense; test: Trypanocidal activity against Trypanosoma brucei rhodesiense KETRI1992 infected in mouse assessed as protection against trypanosomal infection at 25 mg/kg, ip QD administered 24 hrs postinfection; assay type: functional, organism-based; parameters: dose 25 mg/kg
[13] = system: Trypanosoma brucei brucei; test: Trypanocidal activity against Trypanosoma brucei brucei EATRO infected in mouse assessed as mean survival time at 2.5 mg/kg, ip BID for 4 days; assay type: functional; conditions: route intraperitoneal
[14] = system: Trypanosoma brucei brucei; test: Trypanocidal activity against Trypanosoma brucei brucei EATRO infected in mouse assessed as mean survival time at 10 mg/kg, ip BID for 4 days; assay type: functional; conditions: route intraperitoneal
[15] = system: Trypanosoma brucei brucei; test: Trypanocidal activity against Trypanosoma brucei brucei 667 infected in mouse assessed as average day of relapse of trypanosomal infection at 10 mg/kg, ip BID for 7 days; assay type: functional; conditions: route intraperitoneal
[16] = system: Trypanosoma brucei brucei; test: Trypanocidal activity against Trypanosoma brucei brucei EATRO infected in mouse assessed as protection against trypanosomal infection at 25 mg/kg, ip QD for 4 days; assay type: functional, organism-based; parameters: dose 25 mg/kg
[17] = system: Trypanosoma brucei rhodesiense; test: Trypanocidal activity against Trypanosoma brucei rhodesiense KETRI1992 infected in mouse assessed as protection against trypanosomal infection at 10 mg/kg, ip BID administered 24 hrs postinfection; assay type: functional, organism-based; parameters: dose 10 mg/kg
[18] = system: Trypanosoma brucei rhodesiense; test: Trypanocidal activity against Trypanosoma brucei rhodesiense KETRI243 infected in mouse assessed as average survival time at 25 mg/kg, ip QD administered 24 hrs postinfection; assay type: functional; conditions: route intraperitoneal
[19] = system: Trypanosoma brucei rhodesiense; test: Trypanocidal activity against Trypanosoma brucei rhodesiense KETRI243 after 48 hrs; assay type: functional, organism-based; conditions: KETRI243, 48 h
[20] = system: Trypanosoma brucei rhodesiense; test: Trypanocidal activity against Trypanosoma brucei rhodesiense KETRI2002 infected in mouse assessed as average survival time at 50 mg/kg, ip QD administered 24 hrs postinfection; assay type: functional; conditions: route intraperitoneal
[21] = system: Trypanosoma brucei brucei; test: Trypanocidal activity against Trypanosoma brucei brucei EATRO infected in mouse assessed as protection against trypanosomal infection at 50 mg/kg, ip QD for 4 days; assay type: functional, organism-based; parameters: dose 50 mg/kg
[22] = system: Trypanosoma brucei rhodesiense; test: Trypanocidal activity against Trypanosoma brucei rhodesiense KETRI2002 infected in mouse assessed as protection against trypanosomal infection at 10 mg/kg, ip QD administered 24 hrs postinfection; assay type: functional, organism-based; parameters: dose 10 mg/kg
[23] = system: Trypanosoma brucei brucei; test: Trypanocidal activity against Trypanosoma brucei brucei 667 infected in mouse assessed as average day of relapse of trypanosomal infection at 50 mg/kg, ip BID for 14 days; assay type: functional; conditions: route intraperitoneal
[24] = system: Trypanosoma brucei rhodesiense; test: Trypanocidal activity against Trypanosoma brucei rhodesiense KETRI1992 infected in mouse assessed as protection against trypanosomal infection at 50 mg/kg, ip QD administered 24 hrs postinfection; assay type: functional, organism-based; parameters: dose 50 mg/kg
[25] = system: Trypanosoma brucei rhodesiense; test: Trypanocidal activity against Trypanosoma brucei rhodesiense KETRI1992 infected in mouse assessed as cure rate at 50 mg/kg, ip BID administered 24 hrs postinfection; assay type: functional; conditions: route intraperitoneal
[26] = system: Trypanosoma brucei rhodesiense; test: Trypanocidal activity against Trypanosoma brucei rhodesiense KETRI243 infected in mouse assessed as protection against trypanosomal infection at 10 mg/kg, ip BID administered 24 hrs postinfection; assay type: functional, organism-based; parameters: dose 10 mg/kg
[27] = system: Trypanosoma brucei rhodesiense; test: Trypanocidal activity against Trypanosoma brucei rhodesiense KETRI2538 after 48 hrs; assay type: functional, organism-based; conditions: KETRI2538, 48 h
[28] = system: Trypanosoma brucei rhodesiense; test: Trypanocidal activity against Trypanosoma brucei rhodesiense KETRI2002 infected in mouse assessed as average survival time at 10 mg/kg, ip BID administered 24 hrs postinfection; assay type: functional; conditions: route intraperitoneal
[29] = system: Trypanosoma brucei rhodesiense; test: Trypanocidal activity against Trypanosoma brucei rhodesiense KETRI1992 infected in mouse assessed as average survival time at 50 mg/kg, ip QD administered 24 hrs postinfection; assay type: functional; conditions: route intraperitoneal
[30] = system: Trypanosoma brucei rhodesiense; test: Ratio of Kinact to Kiapp for Trypanosoma brucei rhodesiense AdoMetDC
[31] = system: Trypanosoma brucei brucei; test: Trypanocidal activity against Trypanosoma brucei brucei EATRO infected in mouse assessed as cure rate at 1 mg/kg, ip QD for 4 days; assay type: functional; conditions: route intraperitoneal
[32] = system: Trypanosoma brucei rhodesiense; test: Trypanocidal activity against Trypanosoma brucei rhodesiense KETRI1992 infected in mouse assessed as average survival time at 25 mg/kg, ip QD administered 24 hrs postinfection; assay type: functional; conditions: route intraperitoneal

## Cc1nc2c(N)ncnc2n1[C@@H]1O[C@H](CN(C)C/C=C\CN)[C@@H](O)[C@H]1O
[1]
  Activity: Active
[2]
  MST: 59 days
[3]
  Activity: Active
[4]
  MST: 72 days
[5]
  Activity: Active
[6]
  Activity: inactive
[7]
  MST: 22 days
[8]
  Activity: Active
[9]
  MST: >35 days
[10]
  Activity: Active
[11]
  Activity: 60%
[12]
  Activity: inactive
[13]
  MST: >35 days
[14]
  MST: >35 days
[15]
  MST: 53 days
[16]
  Activity: Active
[17]
  Activity: inactive
[18]
  MST: 14 days
[19]
  IC50: 3.75 ng/mL (≈ 10.3 nM)
[20]
  MST: 21 days
[21]
  Activity: Active
[22]
  Activity: inactive
[23]
  MST: 63.4 days
[24]
  Activity: inactive
[25]
  Activity: 100%
[26]
  Activity: inactive
[27]
  IC50: 0.3 ng/mL (≈ 0.825 nM)
[28]
  MST: 21.5 days
[29]
  MST: 20.2 days
[30]
  Activity: 7.8 min⁻¹ M⁻¹
[31]
  Activity: >50%
[32]
  MST: 18.6 days
